The values that follow come from patent US5736558A, “4-(6-fluoro-1,2-benzisoxazolyl)-1 piperidinyl-propoxy-chromen-4-one-one-derivatives, their preparation and their use in the treatment of psychosis, schizophrenia and anxiety” (Ferrer Internacional, S.A., priority 1995, dated 1998).

Where two headings read alike, the source gives them in different places.

For one data set, the target named is T1, D2 receptors (Rattus norvegicus, UniProt P61169).
T1 construct: membrane corresponding to 20 mg of rat striatum; from tissue; host or cells: rat striatum membrane
Kind of data set: Specific binding to D2 receptors ([3H]spiperone, rat striatum membrane).

The next data set has as its target T2, 5HT2 receptors (Rattus norvegicus, UniProt P14842).
T2 construct: membrane corresponding to 1 mg of rat cortex; from tissue; host or cells: rat cortex membrane
The data set is described as follows: Specific binding to 5HT2 receptors ([3H]ketanserin, rat cortex membrane). The conditions noted are these: 0.5 nM [3H]ketanserin, 30 min, 35° C., pH 7.4. As to the method:
(§1) Specific binding to D2, 5HT2 and, 5HT1a receptors was tested as follows:
The amount of receptor-bound radioactivity was retained on the membrane and determined by liquid scintillation counting.
(§2) The biochemical results expressed as IC50 in molar concentrations are presented in Table 1 comparatively to the compound of Patent ES 9400581. A higher affinity of the present compounds to the three receptors is observed.

For a further data set, the target named is T3, 5HT1a receptors (Rattus norvegicus, UniProt P19327).
T3 construct: membrane corresponding to 1 mg of rat cortex; from tissue; host or cells: rat cortex membrane
T3 sequence (P19327 1-422): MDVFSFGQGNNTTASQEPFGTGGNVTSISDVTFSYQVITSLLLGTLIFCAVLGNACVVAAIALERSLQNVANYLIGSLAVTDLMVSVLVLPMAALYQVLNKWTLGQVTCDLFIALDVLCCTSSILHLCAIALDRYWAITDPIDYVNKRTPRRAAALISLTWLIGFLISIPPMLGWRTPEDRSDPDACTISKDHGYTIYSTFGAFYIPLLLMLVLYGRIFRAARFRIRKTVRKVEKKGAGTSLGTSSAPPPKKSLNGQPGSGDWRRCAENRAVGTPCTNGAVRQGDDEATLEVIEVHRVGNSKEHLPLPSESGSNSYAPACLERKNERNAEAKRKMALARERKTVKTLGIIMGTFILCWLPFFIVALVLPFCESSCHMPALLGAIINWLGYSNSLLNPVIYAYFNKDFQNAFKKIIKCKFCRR
The data set is described as follows: Specific binding to 5HT1a receptors ([3H]5-OH-DPAT, rat cortex membrane). How it is done: as §1
5HT1a receptors: A 1 nM solution of radioactive […], which acts as a specific ligand, was incubated with the membrane corresponding to 1 mg of rat cortex for 20 min at 35° C. buffered at pH 7.4 with Tris.HCl.
Non-specific binding was then determined by addition of a 20 micromolar concentration of unlabelled buspirone. IC50 (inhibitory concentration 50%) was calculated from the inhibition rate of the specific binding obtained by addition of eleven different concentrations of the compounds to be tested. After the incubation was completed, the sample was filtered through a glass fiber filter and then washed three times with Tris.HCl buffer. The amount of receptor-bound radioactivity was retained on the membrane and determined by liquid scintillation counting.
as §2

Data set [1] deals with apomorphine-induced climbing behaviour. The data set is described as follows: Inhibition test of apomorphine-induced climbing behaviour. The data set is classed as in vivo, male Swiss mice. The conditions noted are these: Mus musculus, 1 h, read-out: ID50 Climbing.
Procedure: The compounds were compared in Animal Pharmacology by the inhibition test of apomorphine-induced climbing behaviour
For the practical performance of this experiment, male Swiss mice weighing 22-24 g were used. One week prior to experiment, animals were kept in our facilities at a temperature of 20°-22° C. and 12/12 h light-dark cycle, and had free access to food and water. Two hours prior to experiment, the animals were placed in individual cages without access to food.
Animals were administered orally with test drug or 0.25% agar at time 0. After 60 minutes, apomorphine was subcutaneously injected at a dose of 1 mg/kg, and after further 70 minutes the animal's behaviour was assessed. Two additional assessments were performed at 10-min intervals.
For assessment, each animal was placed on the bottom of a small upright box (11×7.5×4.5 cm). The walls of the box were made of translucent methacrylate except one of the lateral surfaces (7.5 cm wide) which was a 3-mm wire mesh. The position of the animal was scored for 2 minutes according to the following criteria: 0=four paws on the floor; 1=three paws on the floor; 2=two paws on the floor; 3=one paw on the floor; and 4=four paws holding the wire mesh. If an animal keeps several positions within the 2-min observation, the seconds elapsed in each position will be recorded. Finally, mean scoring was calculated.
A short description of a further data set: in vivo. The conditions noted are these: rat, po.
Where [2] appears, read: 1 nM [3H]5-OH-DPAT, rat cortex, 20 min, 35° C., pH 7.4, read-out: IC50 5HT1a.
Setting [3] is: oral, mice, apomorphine 1 mg/kg s.c. after 60 min.

Usually IC50 stands for the concentration needed to halve the response being measured.

T2 sequence (P14842 whole entry): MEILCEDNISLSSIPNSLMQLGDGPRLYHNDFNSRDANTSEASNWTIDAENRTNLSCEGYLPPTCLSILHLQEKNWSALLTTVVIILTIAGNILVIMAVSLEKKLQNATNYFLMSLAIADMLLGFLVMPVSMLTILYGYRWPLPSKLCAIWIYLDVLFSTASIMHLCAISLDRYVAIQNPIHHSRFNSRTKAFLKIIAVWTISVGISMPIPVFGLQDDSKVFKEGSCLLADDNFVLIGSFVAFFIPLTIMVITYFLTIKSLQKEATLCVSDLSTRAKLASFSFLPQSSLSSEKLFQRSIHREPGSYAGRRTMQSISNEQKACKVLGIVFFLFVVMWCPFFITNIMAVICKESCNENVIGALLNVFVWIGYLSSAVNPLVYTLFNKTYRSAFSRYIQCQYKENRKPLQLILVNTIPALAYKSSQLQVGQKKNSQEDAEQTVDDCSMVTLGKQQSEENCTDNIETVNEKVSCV
T1 sequence (P61169 whole entry): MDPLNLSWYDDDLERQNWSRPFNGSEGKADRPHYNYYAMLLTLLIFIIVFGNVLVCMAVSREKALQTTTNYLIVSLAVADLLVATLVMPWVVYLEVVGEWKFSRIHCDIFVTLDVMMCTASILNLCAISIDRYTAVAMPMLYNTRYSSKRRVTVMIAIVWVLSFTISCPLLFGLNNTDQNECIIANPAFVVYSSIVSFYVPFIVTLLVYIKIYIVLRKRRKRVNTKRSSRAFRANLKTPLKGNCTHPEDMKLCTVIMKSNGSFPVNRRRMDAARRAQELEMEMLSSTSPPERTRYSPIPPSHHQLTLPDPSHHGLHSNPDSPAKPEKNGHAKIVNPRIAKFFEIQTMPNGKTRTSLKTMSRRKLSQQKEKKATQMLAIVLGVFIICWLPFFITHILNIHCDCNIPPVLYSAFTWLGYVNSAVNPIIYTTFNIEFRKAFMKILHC
Procedure for D2 receptors: D2 receptors: A 2-nM solution of radioactive spiperone ([^3 H]spiperone), which acts as a specific ligand, was incubated with the membrane corresponding to 20 mg of rat striatum for 20 min at 35° C. buffered at pH 7.4 with Tris.HCl. The non-specific binding was then determined by addition of a micromolar concentration of unlabelled spiperone. […] After the incubation was completed, the sample was filtered through a glass fiber filter and then washed three times with Tris.HCl buffer. The amount of receptor-bound radioactivity was retained on the membrane and determined by liquid scintillation counting.

Take `O=c1ccoc2cc(OCCCN3CCC(c4noc5cc(F)ccc45)CC3)ccc12` [Ex. 1, 7-[3-[4-(6-fluoro-1,2-benzisoxazole-3-yl)piperidin-1-yl]propoxy]chromen-4-one]: the IC50 on D2 receptors (2 nM [3H]spiperone, rat striatum, 20 min, 35° C., pH 7.4, read-out: IC50 D2) was determined as 30 nM; on 5HT2 receptors it was 11.2 nM; on 5HT1a receptors (setting [2]), 383 nM. In addition, the results for the ED50 (in data set [1] (setting [3]); in the data set “in vivo”) were 2.7 mg/kg and 11.2 mg/kg, respectively. In “in vivo”, the selectivity ratio was determined as 4.17.
`O=c1c(CO)coc2cc(OCCCN3CCC(c4noc5cc(F)ccc45)CC3)ccc12` [Ex. 3, 7-[3-[4-(6-fluoro-1,2-benzisoxazole-3-yl)piperidin-1-yl]propoxy]-3-(hydroxymethyl)-chromen-4-one]: the values for the IC50 on D2 receptors, at 5HT2 receptors and on 5HT1a receptors were 11.6 nM, 4.71 nM and 152 nM, respectively. Also, the figures for the ED50 (in data set [1] (po); in the data set “in vivo”) were 0.25 mg/kg and 3.8 mg/kg, respectively. In the data set “in vivo”, the selectivity ratio was 15.2.
As to `Cc1coc2cc(OCCCN3CCC(c4noc5cc(F)ccc45)CC3)ccc2c1=O` [Ex. 2, 7-[3-[4-(6-fluoro-1,2-benzisoxazole-3-yl)piperidin-1-yl]propoxy]-3-methyl-chromen-4-one], the figures for the IC50 at 5HT2 receptors and on 5HT1a receptors (setting [2]) were 11.3 nM and 249 nM, respectively. In addition, the ED50 in data set [1] (setting [3]) was determined as 0.4 mg/kg; in “in vivo”, 2.9 mg/kg. For the same compound, the selectivity ratio in “in vivo” came to 7.25.
